Reference: ChEMBL document CHEMBL1201862, “PubChem BioAssay data set” (2004)
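How tested: cells in 96-well plates exposed to compound for 48 hours at five concentrations. Abbreviation: GI50, concentration required for 50% inhibition of growth.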 Active and inactive are the calls of the source. No stated cut-off is given here; in the data, active = GI50 up to about 1.1 µM and inactive = higher. Where a SMILES comes first, the peptide text is derived from it. The star is where a group is joined. CH2Cl = ClC*

Key:
Assay in all cases: NCI-60 cell line screen, 48 h
[1] = tested on: SNB-78
[2] = tested on: XF498
[3] = tested on: HOP-18
[4] = tested on: DMS-114
[5] = tested on: LXFL 529
[6] = tested on: RXF 631
[7] = tested on: M19-MEL
[8] = tested on: DMS-273
[9] = tested on: MDA-N

Structure (SMILES)	GI50 [5]	GI50 [7]	GI50 [8]	GI50 [9]	further results
C=C1CC2(CCS(=O)(=O)c3ccccc32)OC1=O (stereo not given)	4.4 µM (inactive)	17.5 µM (inactive)	16.5 µM (inactive)	–	GI50 [1]: 9.51 µM (inactive); GI50 [2]: 13.2 µM (inactive); GI50 [3]: 3.63 µM (inactive); GI50 [4]: 3.94 µM (inactive); GI50 [6]: 20.7 µM (inactive)
O=C(CCN1CCOCC1)Nc1ccc(F)cc1F	–	–	–	> 100 µM (inactive)	–
C=CCn1c(=O)c2ccccc2[n+]2c(-c3cccc([N+](=O)[O-])c3)csc12	–	–	–	66.2 µM (inactive)	–
CC(=O)NC(CC(C)C)C(=O)NC(Cc1ccccc1)C(=O)CCl (stereo not drawn) (Ac-Leu-Phe-CH2Cl; configuration not given here)	–	–	–	9.68 µM (inactive)	–
O=S(=O)(O)c1ccc2c(/N=N/c3cccc4ccccc34)c(O)ccc2c1	–	–	–	> 100 µM (inactive)	–
Cc1cc(S(=O)(=O)Nc2nnc3cc(C(F)(F)F)cc(C)n23)c(S)cc1Cl	–	–	–	> 100 µM (inactive)	–
COC1CC(OC(=O)c2ccccc2)C(OC(=O)c2ccccc2)C(C)O1 (stereo not given)	–	–	–	> 100 µM (inactive)	–
CC(C)=CCC/C(C)=C/CO [GERANIOL]	–	–	–	> 100 µM (inactive)	–
CCN(CC)CCCN(c1cc(OC)cc2nccnc12)S(=O)(=O)c1ccc(C)cc1	> 100 µM (inactive)	> 100 µM (inactive)	> 100 µM (inactive)	–	GI50 [2]: > 100 µM (inactive); GI50 [3]: > 100 µM (inactive); GI50 [4]: > 100 µM (inactive); GI50 [6]: > 100 µM (inactive)
COc1ccc2oc(=O)c(CC=C(C)C)c(O)c2c1C	–	–	–	> 100 µM (inactive)	–
COc1cc(/C=C/c2ccc(Br)cc2)cc(OC)c1OC	16.1 µM (inactive)	13.9 µM (inactive)	4.91 µM (inactive)	–	GI50 [2]: 20.2 µM (inactive); GI50 [3]: 6.61 µM (inactive); GI50 [4]: 10.4 µM (inactive); GI50 [6]: 9.77 µM (inactive)
Cc1n(Cc2ccccc2)c2c([n+]1C)C(=O)c1ccccc1C2=O	–	–	–	0.173 µM (active)	–
CC(=O)OCC1OC(n2ccc(=O)[nH]c2=O)C(OC(C)=O)C(OC(C)=O)C1OC(C)=O (stereo not given)	> 100 µM (inactive)	> 100 µM (inactive)	> 100 µM (inactive)	–	GI50 [2]: > 100 µM (inactive); GI50 [3]: > 100 µM (inactive); GI50 [4]: > 100 µM (inactive)
CCCC(=O)NC(C(=O)OCC)(N1CCOCC1)C(F)(F)F (stereo not given)	–	–	–	> 100 µM (inactive)	–
CC[P+](c1ccccc1)(N(C)C)N(C)C	–	–	–	> 100 µM (inactive)	–
Cc1c2c(c(O)c3c(O)cccc13)C(=O)C1(O)C(=O)C(C(=O)NCNc3ccc(C(N)=O)cn3)=C(O)C(N(C)C)C1C2 (stereo not given)	–	–	–	4.49 µM (inactive)	–

Structure (SMILES)	GI50 [5]	GI50 [7]	GI50 [8]	GI50 [9]	further results
COc1cccc(/C(Cl)=C(\C=O)c2cccc(OC)c2)c1	5.65 µM (inactive)	12.7 µM (inactive)	8.17 µM (inactive)	–	GI50 [1]: 4.24 µM (inactive); GI50 [2]: 13.8 µM (inactive); GI50 [3]: 16.4 µM (inactive); GI50 [4]: 3.12 µM (inactive)
Cc1ccc2c(c1)NC(=O)C(N=[N+]=[N-])(c1ccccc1)C2=O (stereo not given)	24 µM (inactive)	19.7 µM (inactive)	12.3 µM (inactive)	–	GI50 [1]: 28.1 µM (inactive); GI50 [2]: 24.7 µM (inactive); GI50 [3]: 26.1 µM (inactive); GI50 [4]: 34.3 µM (inactive)
O=C1N=C(S)NNC12c1ccccc1-c1ccccc12	–	–	–	> 10 µM (inactive)	–
COc1ccc(/C=C(/C#N)C(N)=O)cc1OC	–	–	–	> 100 µM (inactive)	–
Nc1c(-c2ccc(Cl)c(Cl)c2)c2ccc([N+](=O)[O-])cc2c(=O)n1-c1nc2ccccc2s1	–	–	–	0.697 µM (active)	–
O=c1oc2ccccc2cc1/C=N/N1C(=S)N(c2ccccc2)C(=N\c2ccccc2)/C1=N/c1ccccc1	–	–	–	20.5 µM (inactive)	–
C=C(C=O)c1c2c(nc3ccccc13)C(=O)c1ccccc1C2=O	–	–	–	0.202 µM (active)	–
NNC(=O)C(=O)NN=C(C(Cl)(Cl)CO)C(Cl)(Cl)CO	28.2 µM (inactive)	20.1 µM (inactive)	65.9 µM (inactive)	–	GI50 [1]: 21.5 µM (inactive); GI50 [2]: 16.6 µM (inactive); GI50 [3]: > 100 µM (inactive); GI50 [6]: 21.3 µM (inactive)
O=C(N/N=C/c1c(-c2ccccc2)no[n+]1[O-])N1CCOCC1	–	–	–	> 100 µM (inactive)	–
Oc1ccc2c3c1OC1c4[nH]c5c(c4CC4(O)C(C2)N(CC2CC2)CC[C@]314)CC1(O)C2Cc3ccc(O)c4c3[C@@]1(CCN2CC1CC1)C5O4 (stereo not given in full)	–	–	–	18.4 µM (inactive)	–
Cc1c(C)c(C)c(-n2c(=O)n(C)c(=O)n2-c2cc(C(C)(C)C)cc(C(C)(C)C)c2O)c(C)c1C	–	–	–	10.5 µM (inactive)	–
COc1cc2c(c(OC)c1OC)C(=O)c1c(O)cc(C)c(OC)c1C2=O	–	–	–	> 100 µM (inactive)	–
CC(C)(C)c1cc2c3c(c1)c(=O)c1cccc4c(O)c5cccc(c2=O)c5c-3c41	> 100 µM (inactive)	> 100 µM (inactive)	26.1 µM (inactive)	–	GI50 [2]: 35.5 µM (inactive); GI50 [3]: > 100 µM (inactive); GI50 [4]: 10 µM (inactive)
CNC(=S)N1CCN(C(C)=O)C1=S	–	–	–	51.8 µM (inactive)	–
C[C@]12CCC(=O)C=C1CC[C@@H]1C2CC[C@]2(C)Nc3c(cnn3-c3ccccc3)CC12 (stereo not given in full)	> 100 µM (inactive)	> 100 µM (inactive)	> 100 µM (inactive)	–	GI50 [1]: > 100 µM (inactive); GI50 [2]: > 100 µM (inactive); GI50 [4]: > 100 µM (inactive); GI50 [6]: 96.8 µM (inactive)
CC(C)(Br)C(Br)CC/C(=C/CBr)CBr.CC(C)(Br)C(Br)CC/C(=C\CBr)CBr (stereo not given)	3.3 µM (inactive)	2 µM (inactive)	1.65 µM (inactive)	2.16 µM (inactive)	GI50 [1]: 4.46 µM (inactive); GI50 [3]: 18 µM (inactive)
